Measured values published in article PMC12117998, “First Steps toward the Design of Peptides that Influence the Intracellular Palmitoylation Machinery” (Chembiochem, 2025).
No end group written: not given here.

What was measured:
MDA‐MB‐231 [1] = test: Cell viability assay (resazurin); format: cell-based; conditions: MDA‐MB‐231, 24 h, CF‐labeled peptides, n = 3 (Figure 3B)
Method: (§1) HeLa (13,000), MDA‐MB‐231 (26,000), HFF‐1 (16,000) cells, mEGFP‐HRas (18,000), and SW480 and SW620 (15,000) were seeded into a 96‐well plate. Cells were treated with suitable peptide concentrations diluted in the corresponding serum‐free culture medium. After 24 h incubation under standard growth conditions, the cells were washed once with PBS. The positive control was treated for 10 min with 70% EtOH. To test the viability, cells were treated with a resazurin solution (In Vitro Toxicology Assay Kit, resazurin based, Sigma) and incubated for a further 1–2 h. The product resorufin was measured at 595 nm (λex = 550 nm) on an infinite M200 plate reader (Tecan) and normalized to the untreated negative control cells.

HeLa cells [2] = test: Cell viability assay (resazurin); format: cell-based; conditions: 24 h; for cytotoxicity (cell viability): CF‐labeled peptides, n = 3 (Figure 3A); for concentration up to which peptide is not toxic (cell viability): unlabeled peptides in serum-free medium, untreated control = 100%, n = 3 (Figure 2A)
Method: as §1

MCF‐10 A breast spheroid = test: Confocal time‐lapse imaging of spheroids; format: cell-based, human; conditions: 10‐day‐old MCF‐10 A spheroids, 10 μM CF‐labeled peptide, imaged every 45 s for 20 min, n ≥ 2 (Figure 7)
Method: Spheroids from single MCF10‐A cells were generated for 10 days as described in ref. [66]. For further analyses, spheroids were isolated from EHS matrix through incubation in 2 mL ice‐cold cell recovery solution (BD Biosciences) for 30 min (4 °C). Next, spheroids were washed with fresh EGF‐free medium and individually picked under a stereo microscope for seeding onto 35 mm cell culture dishes with microscopic glass bottoms (Cover Slip, 24 × 24 mm, #1.5 HP, Menzel‐Gläser). Spheroids adhered to glass substrates for 15 min (RT) and were subsequently covered with 0.9 mL fresh EGF‐free growth medium.
Live‐cell imaging was performed at 37 °C and 5% CO2 (cell incubator XL, Zeiss, Germany) with an inverse confocal laser scanning microscope (LSM880 with Airyscan detector) that used a 40x LD C‐Apochromat water immersion objective (NA 1.1, Zeiss). Before addition of peptides, control images were taken. Subsequently, peptide was added to a final concentration of 10 μM and spheroids immediately imaged every 45 s for 20 min. The observed plane was at the equatorial plane of a spheroid, where the diameter was largest. Images were taken with Fast Airyscan and subsequent processing using the ZEN 2.3 black software (Zeiss). Z‐stacks were taken right after the time series in 1 μm steps with the same microscopic settings.

HFF‐1 cells [3] = test: Cell viability assay (resazurin); format: cell-based, human; conditions: HFF‐1, 24 h, CF‐labeled peptides, n = 3 (Figure 3C)
Method: as §1

human 6His‐ZDHHC7 = target: T1, human 6His‐ZDHHC7 (Homo sapiens, UniProt Q9NXF8); test: In vitro palmitoylation assay (LC‐MS); format: biochemical; conditions: 50 μM CF‐labeled peptide, 37 °C, LC‐MS (Figure 4); for palmitoylation in presence of ZDHHC7: 100 nM ZDHHC7, 100 μM palmitoyl‐CoA, pH 7.0, 2 h; for palmitoylation in absence of ZDHHC7 (auto‐palmitoylation): 100 μM palmitoyl‐CoA, no ZDHHC7, pH 7.0, 2 h
T1 construct: 6His; purchased Proteintech
T1 sequence (Q9NXF8 1-308): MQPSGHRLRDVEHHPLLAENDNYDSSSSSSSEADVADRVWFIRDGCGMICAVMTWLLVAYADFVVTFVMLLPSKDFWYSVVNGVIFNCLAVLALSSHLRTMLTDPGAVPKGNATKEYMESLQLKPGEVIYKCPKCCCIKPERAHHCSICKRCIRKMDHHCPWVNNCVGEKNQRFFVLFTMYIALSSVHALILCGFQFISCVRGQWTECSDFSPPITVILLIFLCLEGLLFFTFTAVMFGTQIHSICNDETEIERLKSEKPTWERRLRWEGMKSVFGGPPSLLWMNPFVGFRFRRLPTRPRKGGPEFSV
Method: The 50 μM CF‐labeled peptides were incubated with 100 nM human 6His‐ZDHHC7 (Proteintech) and 100 μM palmitoyl‐CoA (Santa Cruz Biotechnology) in reaction buffer (50 mM HEPES, 150 mM NaCl, 1 mM EDTA, 1 mM (tris(2‐carboxyethyl)phosphine) (TCEP), 0.3 mM DDM, pH 7.0) for 2 h at 37 °C. Control reactions without ZDHHC7 or palm‐CoA were incubated with the appropriate volume of reaction buffer. Afterward, the reaction was centrifuged for 5 min at 13000 rpm. The precipitate was dissolved in DMSO/ACN (3:2, v/v). To enrich the peptide from the supernatant, C8 ZipTips were used. All samples were analyzed on the LC MS‐8060 triple quadrupole ESI‐MS (Shimadzu). The fluorescence intensity (λex = 493 nm, λem = 517 nm) of the samples was measured on an EC 160/2 NUCLEODUR 300‐5 C18 ec column using linear gradients from 20% to 70 % ACN in ddH2O + 0.1% FA over 7 min.

HeLa cells [4] = test: Cellular uptake by flow cytometry; format: cell-based; conditions: 30 min, serum-free medium, 37 °C, flow cytometry
Method: (§2) HeLa (90,000), MDA‐MB‐231 (120,000), and HFF‐1 (125,000) cells were seeded into a 24‐well plate. Cells were treated with the desired concentration of CF‐labeled peptide diluted in the appropriate serum‐free medium for 30 min at 37 °C and 5% CO2. Afterward, cells were washed once with PBS, detached from the plate using indicator‐free trypsin/EDTA and resuspended in indicator‐free culture medium. The cell mixture was measured on the Guava easyCyte flow cytometer (Merck) using the GRN‐B (520/30) detector.
CMA was synthesized and kindly provided by Azizi et al.^[ [33] ^] Cells were either treated with 20 μM CMA diluted in serum‐free media or 0.1% DMSO diluted in serum‐free media for 6 h at 37 °C with 5% CO2. Next, cells were washed once with serum‐free medium and 5 μM CF‐labeled peptides diluted in serum‐free medium were incubated for 30 min. Control cells were only treated with dimethylsulfoxide (DMSO) or 20 μM CMA.
For the preincubation assay, cells were either treated with 5 μM DC‐2 diluted in serum‐free medium or only serum‐free medium for 30 min at 37 °C and 5% CO2. Afterward, cells were washed once with serum‐free medium and treated with 5 μM CF‐labeled DC‐2 for 30 min at 37 °C and 5% CO2.
To block cell surface thiols, cells were incubated with either serum‐free medium or 1.2 mM 5,5′‐dithiobis‐(2‐nitrobenzoic acid) (Ellman's reagent, DTNB) diluted in serum‐free medium for 5 min. Next, untreated cells were treated with 1 μM of CF‐labeled DC‐2 or DC‐2dis diluted in serum‐free medium and DTNB‐pretreated cells with 1 μM of CF‐labeled DC‐2 or DC‐2dis and 1.2 mM DTNB in serum‐free medium for 30 min at 37 °C and 5% CO2 as described by Aubry et al.^[ [47] ^]

HFF‐1 cells [5] = test: Cellular uptake by flow cytometry; format: cell-based, human; conditions: HFF‐1, 30 min, 5 μM CF‐labeled peptides, serum-free medium, 37 °C, n ≥ 3 (Figure 3F)
Method: as §2

MDA‐MB‐231 [6] = test: Cellular uptake by flow cytometry; format: cell-based; conditions: MDA‐MB‐231, 30 min, 5 μM CF‐labeled peptides, serum-free medium, 37 °C, n ≥ 3 (Figure 3E)
Method: as §2

HeLa cells [7] = test: Live‐cell fluorescence imaging of peptide uptake; format: cell-based; conditions: 30 min, 5 μM CF‐labeled peptides, confocal laser scanning microscopy (Figure 3G)
Method: HeLa (40,000), MDA‐MB‐231 (30,000), or HFF1 (55,000) cells were seeded into an 8‐well ibidi. Cells were treated for 30 min with 5 μM of CF‐labeled peptide diluted in the appropriate serum‐free media. The cell nuclei were stained with the Hoechst 33342 nuclear dye for the last 10 min of the total incubation time. Afterward, cells were washed three to four times using serum‐free medium and finally, medium containing FBS was added for the microscopy. Live fluorescence microscopy analyses were performed on the LSM 980 with Airyscan 2 Inverse Confocal Laser Scanning Microscope (Carl Zeiss) on a 63X Plan‐Apochromat oil objective (NA 1.4, Zeiss) at 37 °C and 5% CO2 or on the BZ‐X810 (Keyence) using a 60X Plan‐Apochromat oil objective (NA 1.4, Keyence). Images were cropped and processed using Fiji.
Hela cells (15,000) were seeded into a 96-well plate. Cells were treated with suitable peptide concentrations diluted in the corresponding serum-free culture medium. After 1 h peptide incubation under standard growth conditions, the positive control was either directly treated with lysis solution or the supernatant was exchanged for serum-free culture medium and the plate was incubated for further 5 h under growing conditions. The CytoTox-ONE™ Reagent was added and incubated at RT for 10 minutes. Finally, the Stop Solution was added and the fluorescence was measured at 595 nm (λex = 550 nm) on an infinite M200 plate reader (Tecan) and normalized to the positive control cells.
Red blood cells (RBCs) were washed three times in PBS by centrifug ing at 4 °C and 3,000 x g for 5 min and diluted to 5% in PBS. The desired peptide concentrations diluted in PBS were added into a 96-well plate. Next, 5% RBCs in PBS were added into the wells and incubated for 24 h at 37 °C and 5% CO2. As a positive control, RBCs were mixed with 10% Triton X-100 in PBS. […] Lastly, the absorption (λ=560 nm) was measured on the infinite M200 plate reader (Tecan). For the evaluation, the measured absorption of the Triton-X-100 treatment was set to a hemolysis rate […]

[8] = 5 μM CF‐labeled peptides, n ≥ 3 (Figure 3D, 5C)
[9] = 10 μM CF‐labeled peptides, n = 3 (Figure 2B)

| Substance | cytotoxicity (cell viability) (MDA‐MB‐231 [1]) | cytotoxicity (cell viability) (HeLa cells [2]) | concentration up to which peptide is not toxic (cell viability) (HeLa cells [2]) | infiltration of basement membrane (BM)‐covered spheroids (MCF‐10 A breast spheroid) | cytotoxicity (cell viability) (HFF‐1 cells [3]) | palmitoylation in presence of ZDHHC7 (human 6His‐ZDHHC7) | palmitoylation in absence of ZDHHC7 (auto‐palmitoylation) (human 6His‐ZDHHC7) | cellular uptake (in words) (HeLa cells [4]; [8]) | cellular uptake (in words) (HeLa cells [4]; [9]) | cellular uptake (in words) (HFF‐1 cells [5]) | cellular uptake (in words) (MDA‐MB‐231 [6]) | intracellular uptake pattern (HeLa cells [7]) |
| --- | --- | --- | --- | --- | --- | --- | --- | --- | --- | --- | --- | --- |
| GLRKRLRKFRNKKMDHHAPW-NH2 [DA‐1, control peptide in which the cysteine of the DHHC motif of DC‐2 was exchanged by an alanine] | not toxic | not toxic | > 100 µM | did not further enter cells of the spheroid | not toxic |  |  |  |  |  |  |  |
| GLRKRLRKFRNK-NH2 [sC18*, cell‐penetrating peptide (CPP) sC18*, origin CAP18, control peptide, reference compound] | not toxic | not toxic | > 100 µM |  | not toxic |  |  |  |  |  |  |  |
| GLRKRLRKFRNKEFDHHCPW-NH2 [DC‐4, CPP sC18* fused to the DHHC motif derived from ZDHHC5] |  |  |  |  |  | only a minor peak of palmitoylated DC‐4 | no auto‐palmitoylation | overall weaker uptake | internalized to less extent |  |  |  |
| GLRKRLRKFRNKRMDHHCPW-NH2 [DC‐11, CPP sC18* fused to the DHHC motif derived from ZDHHC21] |  |  |  |  |  | palmitoylated | auto‐palmitoylation | internalized to a higher extent compared to DC‐4 | highest uptake | internalized to a higher extent compared to DC‐4 | internalized to a higher extent compared to DC‐4 | diffuse cytosolic pattern |
